What was measured:
Assay in all cases: relative viability (nuclei count vs DMSO), 5 days (fraction); higher = more cells survive
[1] = compound: Nc1nc(Nc2ccc3c(c2)CC[C@@H](N2CCCC2)CC3)nn1-c1cc2c(nn1)-c1ccccc1CCC2 [Bemcentinib] + CCNC(=O)c1noc(-c2cc(C(C)C)c(O)cc2O)c1-c1ccc(CN2CCOCC2)cc1 [Luminespib] (partner 0.01 µM)
Outline: (§1)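 Relative viability equals treated-well nuclei counts divided by vehicle-well nuclei counts. Counts came from 4× images of lung cancer cell lines grown in 1536-well plates for 5 days after pin-tool dosing on the day after seeding. Dosing used one drug alone or a fixed anchor-drug dose plus five library-drug doses (not always all listed) in √10 steps, and values are medians of duplicate plates.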

[2] = compound: CNC(=O)c1ccccc1Sc1ccc2c(/C=C/c3ccccn3)n[nH]c2c1 [Axitinib] + CC(=O)Nc1cccc(-n2c(=O)n(C3CC3)c(=O)c3c(Nc4ccc(I)cc4F)n(C)c(=O)c(C)c32)c1 [Trametinib] (partner 0.02 µM)
Outline: as §1

[3] = compound: CC1=CC=C(C=C1)C(=O)CN2C3=C(CCCC3)SC2=N [Pifithrin_alpha] + CC(=O)c1c(C)c2cnc(Nc3ccc(N4CCNCC4)cn3)nc2n(C2CCCC2)c1=O [Palbociclib] (partner 0.5 µM)
Outline: as §1

[4] = compound: CNC(=O)c1ccccc1Sc1ccc2c(/C=C/c3ccccn3)n[nH]c2c1 [Axitinib] + Cc1nc(NC(=O)N2CCC[C@H]2C(N)=O)sc1-c1ccnc(C(C)(C)C(F)(F)F)c1 [Alpelisib] (partner 2 µM)
Outline: as §1

Row | Cell Line | relative viability ([1]; first compound 0.04 µM) | relative viability ([1]; first compound 0.1265 µM) | relative viability ([1]; first compound 0.4 µM) | relative viability ([1]; first compound 1.265 µM) | relative viability ([1]; first compound 4 µM) | relative viability ([2]; first compound 0.005 µM) | relative viability ([2]; first compound 0.01581 µM) | relative viability ([2]; first compound 0.05 µM) | relative viability ([2]; first compound 0.1581 µM) | relative viability ([2]; first compound 0.5 µM) | relative viability ([3]; first compound 1 µM) | relative viability ([3]; first compound 3.162 µM) | relative viability ([3]; first compound 10 µM) | relative viability ([3]; first compound 31.62 µM) | relative viability ([3]; first compound 100 µM) | relative viability ([4]; first compound 0.005 µM) | relative viability ([4]; first compound 0.01581 µM) | relative viability ([4]; first compound 0.05 µM) | relative viability ([4]; first compound 0.1581 µM) | relative viability ([4]; first compound 0.5 µM)
1 | UMC-11 | 0.964 | 1.06 | 1.1 | 0.967 | 1.04 | 0.709 | 0.668 | 0.572 | 0.691 | 0.616 | 0.342 | 0.289 | 0.301 | 0.283 | 0.296 | 1.08 | 0.871 | 0.959 | 1.03 | 1.16
2 | PC-3 [JPC-3] | 0.722 | 0.695 | 0.712 | 0.69 | 0.674 | 0.756 | – | 0.626 | 0.762 | 0.741 | – | 0.519 | – | 0.455 | 0.458 | 1.09 | – | 1 | 1.04 | 1.12
3 | LU99A | 0.19 | 0.289 | 0.234 | 0.346 | 0.24 | 0.547 | 0.463 | 0.534 | 0.541 | 0.511 | 0.39 | 0.445 | 0.387 | – | 0.453 | 0.492 | 0.498 | 0.533 | 0.515 | 0.522
4 | CAL-12T | 0.273 | 0.462 | 0.388 | 0.363 | 0.453 | 0.401 | 0.311 | 0.336 | 0.288 | 0.338 | 0.364 | 0.308 | 0.436 | – | 0.238 | 1.35 | 1.38 | 1.01 | 1.26 | 1.32
5 | NCI-H2087 | 0.142 | 0.15 | 0.187 | 0.219 | 0.185 | 0.206 | 0.182 | 0.196 | 0.21 | 0.242 | 0.219 | 0.198 | 0.245 | 0.195 | 0.207 | 1.18 | 1.04 | 0.993 | 1.07 | 1.22
6 | LCLC-97TM1 | 0.684 | 0.793 | 0.726 | 0.866 | 0.986 | 0.18 | 0.212 | 0.184 | 0.202 | 0.187 | – | 0.293 | 0.204 | – | 0.225 | 0.252 | 0.285 | 0.237 | 0.205 | 0.247
7 | BEN | 0.178 | 0.395 | 0.563 | 0.199 | 0.236 | 1.33 | 1.04 | 0.885 | 0.992 | 1.01 | 0.487 | 0.488 | 0.456 | 0.444 | 0.472 | 0.993 | 1.04 | 0.928 | 1.04 | 0.908
8 | NCI-H727 | 0.352 | 0.383 | 0.268 | 0.29 | 0.303 | 0.375 | 0.369 | 0.402 | 0.377 | 0.414 | 0.615 | 0.678 | 0.657 | 0.636 | 0.667 | 0.612 | 0.524 | 1.43 | 0.538 | 0.783
9 | NCI-H1915 | 0.861 | 0.974 | 0.9 | 0.899 | 0.89 | 0.34 | 0.299 | 0.312 | 0.298 | 0.33 | 0.532 | 0.517 | 0.522 | – | 0.452 | 1.08 | 1.08 | 1.03 | 1.08 | 1.08
10 | HARA | 0.603 | 0.983 | 0.719 | 1.03 | 0.597 | 0.727 | 0.707 | 0.768 | 0.618 | 0.949 | 0.219 | 0.266 | 0.26 | 0.265 | 0.226 | 0.877 | 0.909 | 0.975 | 0.824 | 1.02
11 | EMC-BAC-2 | 1.24 | 1.29 | 1.16 | 1.19 | 1.2 | 0.952 | 0.905 | 0.898 | 0.926 | 0.88 | 0.493 | 0.542 | 0.489 | 0.422 | 0.506 | 0.788 | 0.702 | 0.742 | 0.749 | 0.808
12 | HCC-44 | 1.05 | 1.4 | 1.02 | 1.06 | 1.05 | 1.05 | 1.1 | 1.05 | 1.06 | 1.03 | 0.825 | 0.922 | 0.867 | 0.81 | 0.812 | 0.842 | 0.881 | 0.873 | 0.834 | 0.89
13 | LOU-NH91 | 0.293 | 0.414 | 0.354 | 0.303 | 0.324 | 0.778 | 0.732 | 0.807 | 0.766 | 0.818 | 0.471 | 0.537 | 0.516 | 0.491 | 0.523 | 0.772 | 0.512 | 0.715 | 0.702 | 0.778
14 | NCI-H3122 | – | 0.0968 | 0.102 | 0.0892 | 0.0707 | 0.217 | 0.212 | 0.255 | 0.217 | 0.267 | 0.175 | 0.211 | 0.193 | 0.146 | 0.195 | 0.753 | 0.719 | 0.843 | 0.711 | 0.792

Reference: the supplement of paper PMC10307832
